Laboratory results: patent US20240109853A1 (Shanghai Yao Yuan Biotechnology Co., Ltd., priority 2020, published 2024)
Where a name gives a salt, the structure may show the parent alone. Read-outs that look alike come from different tables or passages of the source.

Target: ALPK1 (Homo sapiens (Human), UniProt Q96QP1)
Test: ALPK1 in vitro kinase assay (HTRF of TIFA phosphorylation)
Type: biochemical
Excerpt: In embodiments, a compound of Formula I, or a subembodiment described herein, is an inhibitor of ALPK1 as measured, for example, in an in vitro kinase assay, or an assay designed to measure the activation of downstream targets of ALPK1 pathway activation, for example NFkB transcriptional activation and the secretion of proinflammatory cytokines and chemokines, such as IL-8, which is also referred to as CXCL-8. In general, the computer program XL fit was used for data analysis, including non-linear regression analysis. The half maximal inhibitory concentration (IC50) was used as the measure of a compound's effectiveness in the assays. IC50 values were determined using the following logistic equation Y=min+(max−min)/(1+(X/IC50^−hillslpoe), where Y is the value at the compound concentration, X. The concentration response curve fitting was conducted using GraphPad Prism version 6.00 software.
ALPK1 kinase activity was measured in an in vitro assay using ADP-Heptose as the ALPK1 ligand and activator of its kinase activity and TIFA protein as the ALPK1 phosphorylation substrate. Since phosphorylated TIFA proteins oligomerize, Homogeneous Time-Resolved Fluorescence (HTRF) was used to measure protein:protein interaction between HA-tagged TIFA proteins as an indicator of TIFA phosphorylation.
In brief, dose-response studies were performed with HEK293 cells cultured in Dulbecco's Modified Eagle Medium (DMEM) supplemented 10% fetal bovine serum (FBS, Hyclone™) containing antibiotics (pen/strep, G418) in 384-well assay plates. Each well contained 0.1 mg TIFA, ALPK1 (2 nM final concentration in reaction mixture) and kinase buffer (100 mM of HEPES pH 7.4, 4 mM DTT, 40 mM MgCl2, 20 mM of β-Glycerol phosphate disodium salt, 0.4 mM of Na3VO4, 0.16 mg/mL). Titrations of the test compounds were prepared in dimethylsulphoxide (DMSO). The reaction was initiated by addition of ATP and ADP-Heptose.
For HTRF, samples were incubated with a Tb cryptate-labeled anti-HA antibody for capturing HA-tagged proteins according to the manufacturer's instructions (PerkinElmer™, CisBio™) and the fluorescence signal was quantified (Tecan Infinite F NANO+). HTRF signals were calculated as the HTRF ratio (ratio of fluorescence measured at 665 nm and 620 nm)×104 (thereby using the signal at 620 nm as an internal standard).
IC50 values were determined using 3- or 4-parameter logistic equation using GraphPad Prism version 6.00. The reference compound, A027, was used as a positive control for each plate.

[1] = ALPK1 2 nM, TIFA substrate, ADP-Heptose activator, HTRF readout

Sequence of ALPK1 (Q96QP1 whole entry): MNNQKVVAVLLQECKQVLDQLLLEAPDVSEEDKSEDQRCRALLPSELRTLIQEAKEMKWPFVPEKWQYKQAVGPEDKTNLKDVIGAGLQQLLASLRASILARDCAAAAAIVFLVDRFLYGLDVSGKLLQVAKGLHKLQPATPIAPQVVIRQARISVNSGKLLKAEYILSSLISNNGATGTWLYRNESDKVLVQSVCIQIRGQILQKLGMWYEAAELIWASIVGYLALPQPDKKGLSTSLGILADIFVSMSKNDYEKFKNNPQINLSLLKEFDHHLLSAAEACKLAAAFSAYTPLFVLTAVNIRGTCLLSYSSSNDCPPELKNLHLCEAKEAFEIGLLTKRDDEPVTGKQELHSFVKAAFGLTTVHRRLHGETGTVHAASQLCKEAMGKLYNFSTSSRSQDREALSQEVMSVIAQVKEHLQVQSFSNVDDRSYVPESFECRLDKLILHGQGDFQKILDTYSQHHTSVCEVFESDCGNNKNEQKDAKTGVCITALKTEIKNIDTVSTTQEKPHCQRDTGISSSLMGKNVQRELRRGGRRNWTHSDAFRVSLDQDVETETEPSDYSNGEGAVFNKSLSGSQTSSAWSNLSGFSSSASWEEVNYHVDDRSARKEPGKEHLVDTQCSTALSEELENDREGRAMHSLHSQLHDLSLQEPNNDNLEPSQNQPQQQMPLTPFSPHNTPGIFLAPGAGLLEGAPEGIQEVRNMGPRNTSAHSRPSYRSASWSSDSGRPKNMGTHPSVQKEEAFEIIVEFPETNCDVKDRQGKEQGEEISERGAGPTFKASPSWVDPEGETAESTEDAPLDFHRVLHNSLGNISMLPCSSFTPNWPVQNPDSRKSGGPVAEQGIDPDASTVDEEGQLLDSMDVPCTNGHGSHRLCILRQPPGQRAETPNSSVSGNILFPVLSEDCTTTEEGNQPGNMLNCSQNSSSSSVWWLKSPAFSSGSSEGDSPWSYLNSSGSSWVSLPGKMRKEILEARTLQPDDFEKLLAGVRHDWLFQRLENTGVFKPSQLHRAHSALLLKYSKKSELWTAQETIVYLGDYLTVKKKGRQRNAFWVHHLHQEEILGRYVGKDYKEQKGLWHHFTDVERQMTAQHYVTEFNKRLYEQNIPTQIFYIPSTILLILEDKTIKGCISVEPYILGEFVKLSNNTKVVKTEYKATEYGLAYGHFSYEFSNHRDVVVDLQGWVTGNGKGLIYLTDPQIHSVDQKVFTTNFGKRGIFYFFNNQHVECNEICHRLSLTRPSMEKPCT

## COc1ccc(C(C)(C)c2csc(NC(=O)c3ccc(N4CCNCC4C)cc3)n2)cc1 (stereo not shown) [Example B014]
[1]
  IC50: 300 nM

## COC[C@](C)(c1ccccc1)c1csc(NC(=O)c2c(F)cc(N3CCNCC3)cc2F)n1 [Example C017, (R)-2,6-difluoro-N-(4-(1-methoxy-2-phenylpropan-2-yl)thiazol-2-yl)-4-(piperazin-1-yl)benzamide]
[1]
  IC50: 67 nM

## CNC(=O)Nc1nc(C(C)(C)c2ccc(OC)cc2)cs1 [Example A143, 1-(4-(2-(4-methoxyphenyl)propan-2-yl)thiazol-2-yl)-3-methylurea]
  IC50: 53 nM

## CCOCC(C)(c1ccccc1)c1csc(NC(=O)c2c(F)cc(N3CCNCC3)cc2F)n1 (stereo not shown) [Example C031, N-(4-(1-ethoxy-2-phenylpropan-2-yl)thiazol-2-yl)-2,6-difluoro-4-(piperazin-1-yl)benzamide]
[1]
  IC50: 642 nM

## C#C[C@@](C)(c1ccc(Cl)cc1)c1csc(NC(=O)c2c(F)cc(N3CCC(N)C3)cc2F)n1 (stereo in doubt) [Example B088, 4-(3-aminopyrrolidin-1-yl)-N-(4-(2-(4-chlorophenyl)but-3-yn-2-yl)thiazol-2-yl)-2,6-difluorobenzamide]
[1]
  IC50: 42 nM

## COc1ccc(C(C)(C)c2csc(NC(=O)c3ccc(CN4CCN(CCO)CC4)cc3)n2)cc1 [Example B034, 4-((4-(2-hydroxyethyl)piperazin-1-yl)methyl)-N-(4-(2-(4-methoxyphenyl)propan-2-yl)thiazol-2-yl)benzamide]
[1]
  IC50: 44 nM

## COc1ccc(C(C)(C)c2csc(NC(=O)NCCCC(N)=O)n2)cc1 [Example A114, 4-(3-(4-(2-(4-methoxyphenyl)propan-2-yl)thiazol-2-yl)ureido)butanamide]
  IC50: 260 nM

## CC(C)(c1ccc(Br)cc1)c1csc(NC(=O)c2cnc(N3CCNCC3)nc2)n1 [Example B036, N-(4-(2-(4-bromophenyl)propan-2-yl)thiazol-2-yl)-2-(piperazin-1-yl)pyrimidine-5-carboxamide]
[1]
  IC50: 110 nM

## CN1CCN(c2cc(F)c(C(=O)Nc3nc(C4(c5ccc(Br)cc5)CCCC4)cs3)c(F)c2)CC1 [Example C015, N-(4-(1-(4-bromophenyl)cyclopentyl)thiazol-2-yl)-2,6-difluoro-4-(4-methylpiperazin-1-yl)benzamide]
[1]
  IC50: 266 nM

## C#CC(C)(c1ccc(Cl)cc1)c1csc(NC(=O)c2c(F)cc(N3CCNCC3CC)cc2F)n1 (stereo not shown) [Example B101, N-(4-(2-(4-chlorophenyl)but-3-yn-2-yl)thiazol-2-yl)-4-(2-ethylpiperazin-1-yl)-2,6-difluorobenzamide]
[1]
  IC50: 70 nM

## CC(C)(c1ccc(Br)cc1)c1csc(NC(=O)NCc2cnc(N3CCC(N)C3)nc2)n1 (stereo not shown) [Example A078, 1-((2-(3-aminopyrrolidin-1-yl)pyrimidin-5-yl)methyl)-3-(4-(2-(4-bromophenyl)propan-2-yl)thiazol-2-yl)urea]
  IC50: 8 nM

## COc1ccc(C(C)(C)c2csc(NC(=O)c3ccc(N4CCNCC4)cn3)n2)cc1 [Example B044, N-(4-(2-(4-methoxyphenyl)propan-2-yl)thiazol-2-yl)-5-(piperazin-1-yl)picolinamide]
[1]
  IC50: 213 nM

## COc1ccc(C(C)(C)c2csc(NC(=O)c3cc(I)cc(I)c3O)n2)cc1 [Example B050, 2-hydroxy-3,5-diiodo-N-(4-(2-(4-methoxyphenyl)propan-2-yl)thiazol-2-yl)benzamide]
[1]
  IC50: 77 nM

## O=C(NCc1cnc(N2CCNCC2)nc1)Nc1nc(C2(c3ccc(Br)cc3)CCCC2)cs1 [Example A180, 1-(4-(1-(4-bromophenyl)cyclopent-yl)thiazol-2-yl)-3-((2-(piperazin-1-yl)pyrimidin-5-yl)methyl)urea]
  IC50: 45 nM

## COc1ccc(C(C)(C)c2csc(NC(=O)c3ccc(CN4CCNCC4)cc3F)n2)cc1 [Example B013, 2-fluoro-N-(4-(2-(4-methoxyphenyl)propan-2-yl)thiazol-2-yl)-4-(piperazin-1-ylmethyl)benzamide]
[1]
  IC50: 111 nM

## CN1CCN(c2cc(F)c(C(=O)Nc3nc(C4(c5ccc(Br)cc5)CCCC4)cs3)c(F)c2)CC1 [Example C030, N-(4-(1-(4-bromophenyl)cyclopentyl)thiazol-2-yl)-2,6-difluoro-4-(4-methylpiperazin-1-yl)benzamide]
[1]
  IC50: 1770 nM

## CC(c1ccc(Cl)cc1)(c1csc(NC(=O)c2c(F)cc(N3CCNCC3)cc2F)n1)C1CC1 (stereo not shown) [Example C045, N-(4-(1-(4-chlorophenyl)-1-cyclopropylethyl)thiazol-2-yl)-2,6-difluoro-4-(piperazin-1-yl)benzamide]
[1]
  IC50: 25 nM

## COc1ccc(C(C)(C)c2csc(NC(=O)c3ccc(NCCO)cc3)n2)cc1 [Example B032, 4-((2-hydroxyethyl)amino)-N-(4-(2-(4-methoxyphenyl)propan-2-yl)thiazol-2-yl)benzamide]
[1]
  IC50: 280 nM

## C#C[C@@](C)(c1ccc(OC)cc1)c1csc(NC(=O)c2c(F)cc(N3CCNCC3)cc2F)n1 (stereo in doubt) [Example C036, 2,6-difluoro-N-[4-[1-(4-methoxyphenyl)-1-methyl-prop-2-ynyl]thiazol-2-yl]-4-piperazin-1-yl-benzamide]
[1]
  IC50: 67 nM

## COCCOc1cc(C(=O)Nc2nc(C(C)(C)c3ccc(OC)cc3)cs2)ccc1N1CCNCC1 [Example B057, 3-(2-methoxyethoxy)-N-(4-(2-(4-methoxyphenyl)propan-2-yl)thiazol-2-yl)-4-(piperazin-1-yl)benzamide hydrochloride]
[1]
  IC50: 103 nM

## O=C(Nc1nc(C2(c3ccc(Br)cc3)CCCC2)cs1)c1c(F)cc(N2CCNCC2)cc1F [Example C026, N-(4-(1-(4-bromophenyl)cyclopentyl)thiazol-2-yl)-2,6-difluoro-4-(piperazin-1-yl)benzamide]
[1]
  IC50: 437 nM

## COc1ccc(C(C)(C)c2csc(NC(=O)NCCCCN)c2)cc1 [Example A188, 1-(4-aminobutyl)-3-(4-(2-(4-methoxyphenyl)propan-2-yl)thiophen-2-yl)urea]
  IC50: 59 nM

## COCC(C)(c1ccc(OC)cc1)c1csc(NC(=O)c2c(F)cc(N3CCNCC3)cc2F)n1 (stereo not shown) [Example C028, 2,6-difluoro-N-(4-(1-methoxy-2-(4-methoxyphenyl)propan-2-yl)thiazol-2-yl)-4-(piperazin-1-yl)benzamide]
[1]
  IC50: 288 nM

## COc1ccc(C(C)(C)c2csc(NC(=O)c3cnc(N4CCNCC4)cn3)n2)cc1 [Example B025, N-(4-(2-(4-methoxyphenyl)propan-2-yl)thiazol-2-yl)-5-(piperazin-1-yl)pyrazine-2-carboxamide]
[1]
  IC50: 298 nM

## CC1CNCCN1c1ccc(CNC(=O)Nc2nc(C(C)(C)c3ccc(Br)cc3)cs2)cc1 (stereo not shown) [Example A029, 1-(4-(2-(4-bromophenyl)propan-2-yl)thiazol-2-yl)-3-(4-(2-methylpiperazin-1-yl)benzyl)urea]
  IC50: 73 nM

## COc1ccc(C(C)(C)c2csc(NC(=O)c3ccc(OCCN(C)C)cc3)n2)cc1 [Example B021, 4-(2-(dimethylamino)ethoxy)-N-(4-(2-(4-methoxyphenyl)propan-2-yl)thiazol-2-yl)benzamide]
[1]
  IC50: 83 nM

## Cc1ccc(C(C)(C)c2csc(NC(=O)c3ccc(N4CCNCC4)cc3)n2)cc1 [Example B031, 4-(piperazin-1-yl)-N-(4-(2-(p-tolyl)propan-2-yl)thiazol-2-yl)benzamide]
[1]
  IC50: 37 nM

## COc1ccc(C(C)(C)c2csc(NC(=O)c3ccc(OCCCN4CCNCC4)cc3)n2)cc1 [Example B022, N-(4-(2-(4-methoxyphenyl)propan-2-yl)thiazol-2-yl)-4-(3-(piperazin-1-yl)propoxy)benzamide]
[1]
  IC50: 294 nM
